The target of one data set is T1, CYP2C19 (Homo sapiens, UniProt P33261).
T1 construct: host or cells: insect cells (membranes)
Briefly: Substrate depletion with recombinant CYP2C19. The format is in vitro ADME. The following applies: for kobs: recombinant CYP2C19, substrate depletion at 1.0 μM, 10 pmol/mL rCYP, 37 °C. As for the experimental part: (§1) Relative CYP activities were determined from the ratio of the depletion rate constant for each isoform relative to that for CYP3A4. […] Eight 100 μL aliquots each were removed over a period of 70 to 90 minutes and added to 100 μL of a 0.1 μM solution of an internal standard in methanol to quench the enzymatic reaction. The samples were filtered through a high protein-binding capacity filter membrane in a 96-well format. The filtrates were evaporated in a vacuum centrifuge to near dryness, diluted with 125 μL of water, and a 99 μL aliquot was analyzed by reversed phase chromatography/mass spectrometry using selected reaction monitoring. Rate constants were determined from the semi-logarithmic plots of the time versus ratio of the area under the peak for specific transitions of the various substrates and the internal standard. The intrinsic clearance isotope effect was determined from the ratio of the rate constants for the protio- and respective deuterio- forms.

A further data set addresses T2, CYP2C8 (Homo sapiens, UniProt P10632).
T2 construct: host or cells: insect cells (membranes)
T2 sequence (P10632 1-490): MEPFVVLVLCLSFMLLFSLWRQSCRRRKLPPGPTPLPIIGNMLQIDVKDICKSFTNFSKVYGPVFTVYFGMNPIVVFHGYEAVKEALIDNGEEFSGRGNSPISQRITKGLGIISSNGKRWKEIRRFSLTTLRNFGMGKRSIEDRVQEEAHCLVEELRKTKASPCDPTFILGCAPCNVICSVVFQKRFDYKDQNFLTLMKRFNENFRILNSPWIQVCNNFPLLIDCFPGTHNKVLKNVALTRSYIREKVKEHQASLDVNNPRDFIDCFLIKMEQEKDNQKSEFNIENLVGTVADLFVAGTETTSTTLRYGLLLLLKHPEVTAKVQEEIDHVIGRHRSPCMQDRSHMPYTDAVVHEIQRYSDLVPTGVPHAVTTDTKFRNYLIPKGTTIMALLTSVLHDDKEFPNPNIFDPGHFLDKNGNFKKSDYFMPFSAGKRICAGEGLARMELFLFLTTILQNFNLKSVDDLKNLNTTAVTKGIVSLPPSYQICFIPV
Briefly: Substrate depletion with recombinant CYP2C8. Particulars: for As % of CYP3A4: recombinant CYP2C8, depletion rate constant relative to CYP3A4. The format is in vitro ADME. Here is the method:
as §1

In another data set the target is T3, CYP1A2 (Homo sapiens, UniProt P05177).
T3 construct: host or cells: insect cells (membranes)
T3 sequence (P05177 2-516 limits assumed): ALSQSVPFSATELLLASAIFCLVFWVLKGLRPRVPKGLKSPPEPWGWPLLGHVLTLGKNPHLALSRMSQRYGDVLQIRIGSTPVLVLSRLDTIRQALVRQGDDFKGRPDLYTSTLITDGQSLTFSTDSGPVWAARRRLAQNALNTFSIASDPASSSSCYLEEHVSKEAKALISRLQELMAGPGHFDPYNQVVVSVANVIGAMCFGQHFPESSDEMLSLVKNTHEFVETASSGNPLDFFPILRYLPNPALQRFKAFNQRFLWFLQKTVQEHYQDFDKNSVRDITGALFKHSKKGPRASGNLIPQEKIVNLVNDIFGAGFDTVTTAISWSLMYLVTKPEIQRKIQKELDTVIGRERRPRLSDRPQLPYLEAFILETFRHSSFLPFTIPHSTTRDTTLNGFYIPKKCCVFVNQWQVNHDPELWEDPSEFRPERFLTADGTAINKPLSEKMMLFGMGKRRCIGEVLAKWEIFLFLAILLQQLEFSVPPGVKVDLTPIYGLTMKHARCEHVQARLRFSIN
Briefly: Substrate depletion with recombinant CYP1A2. The format is in vitro ADME. Particulars: for kobs: recombinant CYP1A2, substrate depletion at 1.0 μM, 10 pmol/mL rCYP, 37 °C. Here is the method: as §1

In the next data set the target is T4, CYP2D6 (Homo sapiens, UniProt P10635).
T4 construct: host or cells: insect cells (membranes)
T4 sequence (P10635 whole entry): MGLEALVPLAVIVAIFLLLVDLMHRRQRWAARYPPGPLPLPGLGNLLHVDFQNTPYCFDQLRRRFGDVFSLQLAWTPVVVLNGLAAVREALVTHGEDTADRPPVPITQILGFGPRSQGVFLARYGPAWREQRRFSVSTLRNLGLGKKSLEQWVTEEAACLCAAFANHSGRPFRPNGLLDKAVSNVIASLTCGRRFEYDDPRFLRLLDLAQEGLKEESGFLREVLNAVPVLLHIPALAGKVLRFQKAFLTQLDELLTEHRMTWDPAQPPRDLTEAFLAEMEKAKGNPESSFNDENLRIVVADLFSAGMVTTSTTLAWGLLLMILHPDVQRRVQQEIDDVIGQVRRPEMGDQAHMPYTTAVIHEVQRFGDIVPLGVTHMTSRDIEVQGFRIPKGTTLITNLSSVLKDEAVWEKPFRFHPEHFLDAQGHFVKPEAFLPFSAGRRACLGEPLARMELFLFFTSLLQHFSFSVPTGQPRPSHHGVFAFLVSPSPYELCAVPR
Briefly: Substrate depletion with recombinant CYP2D6. Type of data set: in vitro ADME. Here is the method:
as §1

Data set [1] can be described thus: Estimation of Km by the substrate depletion method. Type of data set: in vitro ADME. Particulars: human, pH 7.4. Here is the method:
as §1

The target in another data set is T5, CYP2C9 (Homo sapiens, UniProt P11712).
T5 construct: host or cells: insect cells (membranes)
T5 sequence (P11712 whole entry): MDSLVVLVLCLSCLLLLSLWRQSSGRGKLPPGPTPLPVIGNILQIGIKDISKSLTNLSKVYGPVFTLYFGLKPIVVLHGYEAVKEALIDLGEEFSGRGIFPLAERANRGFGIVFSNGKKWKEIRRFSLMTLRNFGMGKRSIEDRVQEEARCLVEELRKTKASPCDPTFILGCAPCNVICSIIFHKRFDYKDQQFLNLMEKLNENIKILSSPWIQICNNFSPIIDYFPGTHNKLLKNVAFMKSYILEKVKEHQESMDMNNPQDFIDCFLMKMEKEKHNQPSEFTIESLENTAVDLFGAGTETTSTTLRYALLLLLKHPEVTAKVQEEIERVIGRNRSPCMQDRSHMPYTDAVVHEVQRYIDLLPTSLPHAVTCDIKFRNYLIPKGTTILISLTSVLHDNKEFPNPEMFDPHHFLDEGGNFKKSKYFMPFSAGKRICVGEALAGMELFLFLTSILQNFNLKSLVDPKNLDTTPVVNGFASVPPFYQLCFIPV
Kind of data set: Substrate depletion with recombinant CYP2C9. Type of data set: in vitro ADME. Here is the method: as §1

A further data set has as its target T6, CYP3A4 (Homo sapiens, UniProt P08684).
T6 construct: host or cells: insect cells (membranes)
The format is in vitro ADME. Particulars: 1 μM, pH 7.4. As for the experimental part: as §1

Some results are limits rather than exact numbers.

In general, Km refers to the substrate concentration at which the rate is half of its maximum. A word on the melting point: it is the temperature, or range, at which the solid turns liquid.

T1 sequence (P33261 whole entry): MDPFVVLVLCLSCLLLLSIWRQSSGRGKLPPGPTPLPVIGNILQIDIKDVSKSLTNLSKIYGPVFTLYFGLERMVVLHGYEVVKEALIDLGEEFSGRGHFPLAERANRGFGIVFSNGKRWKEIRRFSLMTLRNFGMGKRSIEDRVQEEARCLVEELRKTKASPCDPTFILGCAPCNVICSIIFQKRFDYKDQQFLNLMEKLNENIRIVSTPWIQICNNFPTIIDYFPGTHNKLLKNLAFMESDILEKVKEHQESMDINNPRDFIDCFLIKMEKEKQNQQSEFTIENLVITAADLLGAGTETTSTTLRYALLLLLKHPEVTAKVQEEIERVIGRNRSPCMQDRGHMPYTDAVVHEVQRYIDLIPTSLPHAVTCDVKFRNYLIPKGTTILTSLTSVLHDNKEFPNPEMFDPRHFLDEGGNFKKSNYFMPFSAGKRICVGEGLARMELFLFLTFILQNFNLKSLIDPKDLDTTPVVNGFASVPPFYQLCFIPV
T6 sequence (P08684 2-503 limits assumed): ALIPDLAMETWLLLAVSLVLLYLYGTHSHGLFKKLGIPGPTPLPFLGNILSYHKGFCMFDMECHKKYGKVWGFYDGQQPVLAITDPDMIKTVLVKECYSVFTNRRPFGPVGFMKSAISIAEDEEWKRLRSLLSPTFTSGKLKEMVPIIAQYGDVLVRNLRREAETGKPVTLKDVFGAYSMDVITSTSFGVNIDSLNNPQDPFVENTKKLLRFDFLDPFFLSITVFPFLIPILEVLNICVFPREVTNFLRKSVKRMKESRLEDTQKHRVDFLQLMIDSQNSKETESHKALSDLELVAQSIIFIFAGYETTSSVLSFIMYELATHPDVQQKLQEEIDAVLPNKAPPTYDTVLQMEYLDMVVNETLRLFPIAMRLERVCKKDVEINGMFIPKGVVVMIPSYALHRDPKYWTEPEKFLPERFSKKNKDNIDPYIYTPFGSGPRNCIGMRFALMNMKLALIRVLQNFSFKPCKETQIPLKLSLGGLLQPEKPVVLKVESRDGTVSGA

Regarding `CCNc1nc2c(c(C(N)=O)n1)CN(C(=O)CCc1ccc(OC(F)(F)F)cc1)CC2` [Compound 1a], the melting point was 132 to 133 °C. The kobs on CYP2C19 was determined as 0.071 min⁻¹. Further, the “As % of CYP3A4” value on CYP2C8 was 0%. The kobs on CYP2C8 (recombinant CYP2C8, substrate depletion at 1.0 μM, 10 pmol/mL rCYP, 37 °C) turned out to be 0.001 min⁻¹. Besides, the kobs at CYP1A2 is 0.009 min⁻¹. For the same compound, at CYP2D6 (recombinant CYP2D6, substrate depletion at 1.0 μM, 10 pmol/mL rCYP, 37 °C), the kobs is 0.015 min⁻¹. For the same compound, the Michaelis constant (Km) in data set [1] is greater than 5 µM. In addition, on CYP2C9 (recombinant CYP2C9, substrate depletion at 1.0 μM, 10 pmol/mL rCYP, 37 °C), the kobs was found to be 0.050 min⁻¹.

On to `COc1cccc(-n2nnc(C3CC3)c2C(=O)N(C)c2ccc(C#N)cc2)c1` [Compound 2a], for which the “As % of CYP3A4” value at CYP2C19 (recombinant CYP2C19, depletion rate constant relative to CYP3A4) is given as 24%; at CYP2C8, 0%; at CYP1A2 (recombinant CYP1A2, depletion rate constant relative to CYP3A4), 0%; on CYP2D6 (recombinant CYP2D6, depletion rate constant relative to CYP3A4), 0%; at CYP3A4 (recombinant enzyme) it was 100%; on CYP2C9 (recombinant CYP2C9, depletion rate constant relative to CYP3A4) it was 0%. Also, the kobs on CYP2C19 was 0.014 min⁻¹; at CYP1A2 it was less than 0.001 min⁻¹; on CYP3A4 it was 0.059 min⁻¹. In data set [1], the Km is greater than 5 µM.
